Where two headings read alike, the source gives them in different places.
Columns and labels:
[1] = Olmesartan blood concentration/AUC after 7-day versus single-day dosing; format: in vivo, Korean healthy males; settings: for % Reduction: Compliance-7X vs Non-Compliance-1X
Method: Drug exposure as AUC was studied among Korean healthy males aged between 20 and 50 years in two clinical studies: (1) taking drug regularly for 7 days (subjects were administered either 1 tablet of 40 mg olmesartan medoxomil, 1 tablet of 20 mg rosuvastatin calcium, or 1 tablet each of both agents orally every 24 hours for 7 days) and (2) taking drug only one day (58 subjects divided into 2 cohorts and treated over 2 periods; one tablet of ST-101 (FDC olmesartan and rosuvastatin) tablet of 40 mg olmesartan medoxomil/20 mg rosuvastatin calcium was administered once orally as the test drug, or 1 tablet each of 40 mg olmesartan medoxomil and 20 mg rosuvastatin calcium was co-administered once orally as the comparator). Pharmacokinetic analyses were performed. For PK analyses, blood samples were collected at 0 (pre-dose), 0.5, 2, 2.5, 3, 4, 5, 6, 7, 8, 10, 12, 16, 24, and 48 hr after dosing of olmesartan either as FDC or as single agent. The results are graphically illustrated in FIG. 1. FIG. 1 compares olmesartan AUC (area-under-the-curve) for subjects taking olmesartan regularly for 7 days (Multiple Dosing ×7, solid circles) and for subjects taking olmesartan only 1 day (Single Dosing ×1, open circles): mean+/−95% confidence interval (CI) for subjects taking olmesartan regularly for 7 days. […] The differences between compliance and non-compliance across a 24 hr period were determined (see Table 1). The % reduction in blood concentration can be used to determine if the patient is missing his/her medication. […] There is about 40 ng/mL remaining at 24 hr, which accumulated to about 60 ng/mL following consistently medication for 7 days. The comparison between full compliance for 7 days versus noncompliance is tabulated below.

[2] = as above; format: in vivo, Korean healthy males
[3] = highest dose, olmesartan at 40 mg/day; cited from earlier work

- % Reduction ([1]; Time 0 hrs): Infinity
- % Reduction ([1]; Time 1 hrs): 26.84%
- % Reduction ([1]; Time 2 hrs): 12.43%
- % Reduction ([1]; Time 2.5 hrs): 13.33%
- % Reduction ([1]; Time 3 hrs): 19.97%
- % Reduction ([1]; Time 4 hrs): 19.85%
- % Reduction ([1]; Time 5 hrs): 15.71%
- % Reduction ([1]; Time 6 hrs): 20.17%
- % Reduction ([1]; Time 8 hrs): 24.95%
- % Reduction ([1]; Time 10 hrs): 30.40%
- % Reduction ([1]; Time 12 hrs): 31.90%
- % Reduction ([1]; Time 16 hrs): 40.22%
- % Reduction ([1]; Time 24 hrs): 61.33%
- concentration at 24 h ([1]; male, human, blood, oral, 40 mg, 24 hr, following consistently medication for 7 days, read-out: blood concentration remaining at 24 hr, accumulated): ~60 ng/mL
- concentration at 0 h ([1]; male, human, blood, oral, 40 mg, Time 0 hrs, dosing every 24 hours for 7 days, read-out: Blood concentration (ng/mL)/Compliance-7X): 54.1 ng/mL
- concentration at 1.5 h ([1]; male, human, blood, oral, 40 mg, dosing every 24 hours for 7 days, read-out: Blood concentration (ng/mL)/Compliance-7X): 1060 ng/mL
- concentration at 1.5 h ([1]; male, human, blood, oral, 40 mg, drug taken only one day, read-out: Blood concentration (ng/mL)/Non-Compliance-1X): 932 ng/mL
- concentration at 2 h ([1]; male, human, blood, oral, 40 mg, Time 2 hrs, dosing every 24 hours for 7 days, read-out: Blood concentration (ng/mL)/Compliance-7X): 1130 ng/mL
- concentration at 2.5 h ([1]; male, human, blood, oral, 40 mg, Time 2.5 hrs, dosing every 24 hours for 7 days, read-out: Blood concentration (ng/mL)/Compliance-7X): 1110 ng/mL
- concentration at 3 h ([1]; male, human, blood, oral, 40 mg, Time 3 hrs, dosing every 24 hours for 7 days, read-out: Blood concentration (ng/mL)/Compliance-7X): 1090 ng/mL
- concentration at 4 h ([1]; male, human, blood, oral, 40 mg, Time 4 hrs, dosing every 24 hours for 7 days, read-out: Blood concentration (ng/mL)/Compliance-7X): 911 ng/mL
- concentration at 5 h ([1]; male, human, blood, oral, 40 mg, Time 5 hrs, dosing every 24 hours for 7 days, read-out: Blood concentration (ng/mL)/Compliance-7X): 714 ng/mL
- concentration at 6 h ([1]; male, human, blood, oral, 40 mg, Time 6 hrs, dosing every 24 hours for 7 days, read-out: Blood concentration (ng/mL)/Compliance-7X): 543 ng/mL
- concentration at 8 h ([1]; male, human, blood, oral, 40 mg, Time 8 hrs, dosing every 24 hours for 7 days, read-out: Blood concentration (ng/mL)/Compliance-7X): 361 ng/mL
- concentration at 10 h ([1]; male, human, blood, oral, 40 mg, Time 10 hrs, dosing every 24 hours for 7 days, read-out: Blood concentration (ng/mL)/Compliance-7X): 263 ng/mL
- concentration at 12 h ([1]; male, human, blood, oral, 40 mg, Time 12 hrs, dosing every 24 hours for 7 days, read-out: Blood concentration (ng/mL)/Compliance-7X): 193 ng/mL
- concentration at 16 h ([1]; male, human, blood, oral, 40 mg, Time 16 hrs, dosing every 24 hours for 7 days, read-out: Blood concentration (ng/mL)/Compliance-7X): 123 ng/mL
- concentration at 24 h ([1]; male, human, blood, oral, 40 mg, Time 24 hrs, dosing every 24 hours for 7 days, read-out: Blood concentration (ng/mL)/Compliance-7X): 66.2 ng/mL
- concentration at 24 h ([1]; male, human, blood, oral, 24 hr, before accumulation, read-out: blood concentration remaining at 24 hr): ~40 ng/mL
- concentration at 0 h ([1]; male, human, blood, oral, Time 0 hrs, drug taken only one day, read-out: Blood concentration (ng/mL)/Non-Compliance-1X): 0 ng/mL
- concentration at 1 h ([1]; male, human, blood, oral, Time 1 hrs, drug taken only one day, read-out: Blood concentration (ng/mL)/Non-Compliance-1X): 677 ng/mL
- concentration at 2 h ([1]; male, human, blood, oral, Time 2 hrs, drug taken only one day, read-out: Blood concentration (ng/mL)/Non-Compliance-1X): 1000 ng/mL
- concentration at 2.5 h ([1]; male, human, blood, oral, Time 2.5 hrs, drug taken only one day, read-out: Blood concentration (ng/mL)/Non-Compliance-1X): 976 ng/mL
- concentration at 3 h ([1]; male, human, blood, oral, Time 3 hrs, drug taken only one day, read-out: Blood concentration (ng/mL)/Non-Compliance-1X): 912 ng/mL
- concentration at 4 h ([1]; male, human, blood, oral, Time 4 hrs, drug taken only one day, read-out: Blood concentration (ng/mL)/Non-Compliance-1X): 760 ng/mL
- concentration at 5 h ([1]; male, human, blood, oral, Time 5 hrs, drug taken only one day, read-out: Blood concentration (ng/mL)/Non-Compliance-1X): 617 ng/mL
- concentration at 6 h ([1]; male, human, blood, oral, Time 6 hrs, drug taken only one day, read-out: Blood concentration (ng/mL)/Non-Compliance-1X): 452 ng/mL
- concentration at 8 h ([1]; male, human, blood, oral, Time 8 hrs, drug taken only one day, read-out: Blood concentration (ng/mL)/Non-Compliance-1X): 289 ng/mL
- concentration at 10 h ([1]; male, human, blood, oral, Time 10 hrs, drug taken only one day, read-out: Blood concentration (ng/mL)/Non-Compliance-1X): 202 ng/mL
- concentration at 12 h ([1]; male, human, blood, oral, Time 12 hrs, drug taken only one day, read-out: Blood concentration (ng/mL)/Non-Compliance-1X): 146 ng/mL
- concentration at 16 h ([1]; male, human, blood, oral, Time 16 hrs, drug taken only one day, read-out: Blood concentration (ng/mL)/Non-Compliance-1X): 87.9 ng/mL
- concentration at 24 h ([1]; male, human, blood, oral, Time 24 hrs, drug taken only one day, read-out: Blood concentration (ng/mL)/Non-Compliance-1X): 41.1 ng/mL
- AUC ([1]; male, human, blood, oral, population of subjects receiving olmesartan at 40 mg/day, daily administration, read-out: median AUC (target AUC)): ~7000 ng·h/mL
- clearance ([1]; much of the drug gone from the system at 48 hr): rapid clearance
- % Reduction ([2]; Time 1.5 hrs, Compliance-7X vs Non-Compliance-1X): 14.15%
- concentration at 1 h ([2]; male, human, blood, oral, 40 mg, Time 1 hrs, dosing every 24 hours for 7 days, read-out: Blood concentration (ng/mL)/Compliance-7X): 858 ng/mL
SMILES: CCCc1nc(C(C)(C)O)c(C(=O)O)n1Cc1ccc(-c2ccccc2-c2nnn[nH]2)cc1 [olmesartan]
- subjects achieving target blood pressure reduction [3]: about 50%

— patent US9989543B2, “Composition, device, and method for detecting olmesartan and improving compliance in treating hypertension” (Autotelic LLC, priority 2016, dated 2018)
